This assay concerns the target T1, Alpha-2C adrenergic receptor (Homo sapiens, UniProt P18825).
T1 sequence (P18825 whole entry): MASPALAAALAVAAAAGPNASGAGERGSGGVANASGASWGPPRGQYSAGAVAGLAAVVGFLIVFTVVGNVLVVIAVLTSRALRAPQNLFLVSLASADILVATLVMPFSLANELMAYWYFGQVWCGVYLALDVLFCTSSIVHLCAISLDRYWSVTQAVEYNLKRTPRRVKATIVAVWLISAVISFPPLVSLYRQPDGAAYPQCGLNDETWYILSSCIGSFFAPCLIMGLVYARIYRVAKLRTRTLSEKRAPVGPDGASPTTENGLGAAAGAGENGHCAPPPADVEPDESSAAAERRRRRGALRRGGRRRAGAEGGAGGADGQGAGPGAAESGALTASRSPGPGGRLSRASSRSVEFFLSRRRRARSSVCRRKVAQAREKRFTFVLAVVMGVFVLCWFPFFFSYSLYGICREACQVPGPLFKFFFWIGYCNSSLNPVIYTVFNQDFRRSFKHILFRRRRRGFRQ
Nature of the assay: In Vitro Assay. The method, then: Antagonism against the adrenoreceptor α1A was tested using a recombinant human α1A receptor CHO cell line which additionally also recombinantly expresses mtAeq (mitochondrial aequorin). Antagonism against the adrenoreceptor α2A was tested using a recombinant human α2A-Gα16 receptor fusion protein CHO cell line (PerkinElmer Life Sciences) which additionally also recombinantly expresses mtAeq. Antagonism against the adrenoreceptor α2B was tested using a recombinant human α2B receptor CHO cell line (PerkinElmer Life Sciences) which additionally also recombinantly expresses mtAeq. Antagonism against the adrenoreceptor α2C was tested using a recombinant human α2C receptor CHO cell line which additionally also recombinantly expresses a chimaric G protein (Gαqi3) and mtOb (mitochondrial obelin).The cells were cultivated at 37° C. and 5% CO2 in Dulbecco's modified Eagle's Medium/NUT mix F12 with L-glutamine which additionally contains 10% (v/v) inactivated foetal calf serum, 1 mM sodium pyruvate, 0.9 mM sodium bicarbonate, 50 U/ml penicillin, 50 μg/ml streptomycin, 2.5 μg/ml amphotericin B and 1 mg/ml Geneticin. The cells were passaged with enzyme-free Hank's-based cell dissociation buffer. All cell culture reagents used were from Invitrogen (Carlsbad, USA).

What is called IC50 is the concentration at which inhibition is half-maximal. The low end stands for higher potency, the high end for lower potency. The molecule `O=C(c1ccc(N2CC3(COC3)C2)nc1)N1CCC(N2CCc3ccccc3C2)CC1` [US9624198, 10] registered a concentration for half-maximal inhibition (IC50) of 11 nM.

(Values after BindingDB's records for patent US9624198 (Bayer Pharma Aktiengesellschaft, 2017).)
